# Target: hOGG1 (Homo sapiens, UniProt O15527)
# Experiment: Biochemical fluorescence assay to measure enzymatic activity of hOGG1 (OGG1/APEX IC50)
# Design: Protein His-hOGG1 (12-323) was prepared; His (N); host or cells: E. coli
# Settings: 1 nM OGG1+2 nM APEX+6 nM dsDNA (8-oxo-dG substrate); pH 7.5; RT 40 min; read-out: OGG1/APEX IC50
# Outline: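 Coupled glycosylase/AP-endonuclease read-out: 8-oxo-dG-containing dsDNA (6 nM) cleaved by 1 nM His-hOGG1 (12-323) plus 2 nM APEX1 over 40 min at room temperature, after 20 min enzyme–compound preincubation; buffer 20 mM Tris pH 7.5, 100 mM KCl, 0.1% BSA, 0.01% Tween. IC50 comes from sigmoidal 3-parameter fitting of % inhibition derived from TAMRA signal.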
# Chain of hOGG1 (O15527 12-323): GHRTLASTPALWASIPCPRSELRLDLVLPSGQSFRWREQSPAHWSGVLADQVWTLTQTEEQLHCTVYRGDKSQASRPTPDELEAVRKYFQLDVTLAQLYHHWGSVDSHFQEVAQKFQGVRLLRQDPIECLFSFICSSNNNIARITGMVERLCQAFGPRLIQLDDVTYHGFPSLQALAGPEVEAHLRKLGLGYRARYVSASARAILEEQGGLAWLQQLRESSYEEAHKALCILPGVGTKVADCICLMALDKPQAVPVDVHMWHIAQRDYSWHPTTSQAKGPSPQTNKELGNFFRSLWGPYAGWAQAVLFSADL
row,SMILES,IC50
1,"COc1cc(NC(=O)[C@H]2CC[C@@H](N3Cc4c(Br)cncc4C3=O)CC2)ccc1C [Example 183, (1s,4s)-4-(7-bromo-3-oxo-1H-pyrrolo[3,4-c]pyridin-2(3H)-yl)-N-(3-methoxy-4-methylphenyl)cyclohexanecarboxamide]",0.1 to 1 µM
2,"Cc1cccc2c1CN([C@H]1CC[C@@H](C(=O)Nc3cc4ccccc4[nH]3)CC1)C2=O [Example 273, (1s,4s)-N-(1H-indol-2-yl)-4-(4-methyl-1-oxoisoindolin-2-yl)cyclohexanecarboxamide]",0.1 to 1 µM
3,"COc1cc(NC(=O)[C@H]2[C@@H]3C[C@H](N4Cc5c(Br)cccc5C4=O)C[C@@H]32)ccc1C (single isomer, unassigned) [Example 268]",0.1 to 1 µM
4,"C=Cc1ccc(C)c2c1NC(=O)N([C@H]1CC[C@@H](C(=O)Nc3ccc(C)c(OC)c3)CC1)C2 [Example 55, (1s,4s)-N-(3-Methoxy-4-methylphenyl)-4-(5-methyl-2-oxo-8-vinyl-1,2-dihydroquinazolin-3(4H)-yl)cyclohexanecarboxamide]",< 0.1 µM
5,"COc1cc(NC(=O)[C@H]2CC[C@@H](N3Cc4c(C)cccc4C3=O)CC2)ccc1CO [Example 145, (1s,4s)-N-(4-(Hydroxymethyl)-3-methoxyphenyl)-4-(4-methyl-1-oxoisoindolin-2-yl)cyclohexanecarboxamide]",1 to 10 µM
6,"Cc1ccc(NC(=O)[C@H]2CC[C@@H](N3Cc4c(C)cccc4C3=O)CC2)c(O)c1 [Example 230, (1s,4s)-N-(2-Hydroxy-4-methylphenyl)-4-(4-methyl-1-oxoisoindolin-2-yl)cyclohexanecarboxamide]",1 to 10 µM
7,"COc1cc(NC(=O)[C@H]2CC[C@@H](N3Cc4c(C)cc(C(=O)O)cc4NC3=O)CC2)ccc1C [Example 79, 3-((1s,4s)-4-(3-methoxy-4-methylphenylcarbamoyl)cyclohexyl)-5-methyl-2-oxo-1,2,3,4-tetrahydroquinazoline-7-carboxylic Acid]",0.1 to 1 µM
8,"COCc1ccc2c(c1C)CN([C@H]1CC[C@@H](C(=O)Nc3ccc(C)c(OC)c3)CC1)C(=O)N2 [Example 48, (1s,4s)-N-(3-Methoxy-4-methylphenyl)-4-(6-(methoxymethyl)-5-methyl-2-oxo-1,2-dihydroquinazolin-3(4H)-yl)cyclohexanecarboxamide]",1 to 10 µM
9,"COc1cc(NC(=O)[C@H]2CC[C@@H](N3Cc4c(C)cc(O)cc4C3=O)CC2)ccc1C [Example 206, (1s,4s)-4-(6-Hydroxy-4-methyl-1-oxoisoindolin-2-yl)-N-(3-methoxy-4-methylphenyl)cyclohexanecarboxamide]",< 0.1 µM
10,"COc1cc(NC(=O)[C@H]2CC[C@@H](N3Cc4c(C)cc(CN5CC[C@@H](O)C5)cc4C3=O)CC2)ccc1C [Example 137, (1S,4s)-4-(6-(((R)-3-Hydroxypyrrolidin-1-yl)methyl)-4-methyl-1-oxoisoindolin-2-yl)-N-(3-methoxy-4-methylphenyl)cyclohexanecarboxamide]",< 0.1 µM
11,"COc1cc(NC(=O)[C@H]2CC[C@@H](N3Cc4c(cccc4OC)NC3=O)CC2)ccc1C [Example 71, (1s,4s)-4-(5-methoxy-2-oxo-1,2-dihydroquinazolin-3(4H)-yl)-N-(3-methoxy-4-methylphenyl)cyclohexanecarboxamide]",1 to 10 µM
12,"COc1cc(NC(=O)[C@H]2CC[C@@H](N3Cc4c(Br)cc(NC(=O)CN5CCOCC5)cc4C3=O)CC2)ccc1C [Example 199, (1s,4s)-4-(4-Bromo-6-(2-morpholinoacetamido)-1-oxoisoindolin-2-yl)-N-(3-methoxy-4-methylphenyl)cyclohexanecarboxamide]",0.1 to 1 µM
13,"COc1ccc(NC(=O)[C@H]2CC[C@@H](N3Cc4c(C)cccc4NC3=O)CC2)cc1Cl [Example 88, (1s,4s)-N-(3-chloro-4-methoxyphenyl)-4-(5-methyl-2-oxo-1,2-dihydroquinazolin-3(4H)-yl)cyclohexanecarboxamide]",< 0.1 µM
14,"COc1cc(NC(=O)[C@H]2CC[C@@H](N3Cc4c(C)cc(NCC5(O)CNC5)cc4C3=O)CC2)ccc1C [Example 136, (1s,4s)-4-(6-(((3-hydroxyazetidin-3-yl)methyl)amino)-4-methyl-1-oxoisoindolin-2-yl)-N-(3-methoxy-4-methylphenyl)cyclohexanecarboxamide]",< 0.1 µM
15,"C=Cc1ccc2c(c1C)CN([C@H]1CC[C@@H](C(=O)Nc3ccc(C)c(OC)c3)CC1)C(=O)N2 [Example 53, (1s,4s)-N-(3-methoxy-4-methylphenyl)-4-(5-methyl-2-oxo-6-vinyl-1,2-dihydroquinazolin-3(4H)-yl)cyclohexanecarboxamide]",1 to 10 µM
16,"Cc1ccc(NC(=O)[C@H]2CC[C@@H](N3Cc4c(C)cccc4C3=O)CC2)cc1Br [Example 124, (1s,4s)-N-(3-Bromo-4-methylphenyl)-4-(4-methyl-1-oxoisoindolin-2-yl)cyclohexane-1-carboxamide]",0.1 to 1 µM
17,"COc1ccc(NC(=O)[C@H]2CC[C@@H](N3Cc4c(C)cccc4C3=O)CC2)cc1OC [Example 219, (1s,4s)-N-(3,4-dimethoxyphenyl)-4-(4-methyl-1-oxoisoindolin-2-yl)cyclohexanecarboxamide]",0.1 to 1 µM
18,"COc1cc(NC(=O)[C@H]2CC[C@@H](N3Cc4c(C)cc(C5=CCNCC5)cc4C3=O)CC2)ccc1C [Example 146, (1s,4s)-N-(3-Methoxy-4-methylphenyl)-4-(4-methyl-1-oxo-6-(1,2,3,6-tetrahydropyridin-4-yl)isoindolin-2-yl)cyclohexanecarboxamide]",< 0.1 µM
19,"Cc1cc(NCCN(C)C)cc2c1CN([C@H]1CC[C@@H](C(=O)Nc3nc(CCO)cs3)CC1)C2=O [Example 131, (1s,4s)-4-(6-((2-(Dimethylamino)ethyl)amino)-4-methyl-1-oxoisoindolin-2-yl)-N-(4-(2-hydroxyethyl)thiazol-2-yl)cyclohexane-1-carboxamide]",1 to 10 µM
20,"Cc1cccc2c1CN([C@H]1CC[C@@H](C(=O)Nc3nc(C)c(C)s3)CC1)C2=O [Example 240, (1s,4s)-N-(4,5-Dimethylthiazol-2-yl)-4-(4-methyl-1-oxoisoindolin-2-yl)cyclohexanecarboxamide]",> 10 µM
21,"COc1cc(NC(=O)[C@@H]2CC[C@@H](N3Cc4c(C)cc(NCCN(C)C)cc4C3=O)C2)ccc1C [Example 139, (1R,3R)-3-(6-((2-(Dimethylamino)ethyl)amino)-4-methyl-1-oxoisoindolin-2-yl)-N-(3-methoxy-4-methylphenyl)cyclopentanecarboxamide]",> 10 µM
22,"COc1cc(NC(=O)[C@H]2CC[C@@H](N3Cc4c(cccc4C(F)(F)F)C3=O)CC2)ccc1C [Example 147, (1s,4s)-N-(3-Methoxy-4-methylphenyl)-4-(1-oxo-4-(trifluoromethyl)isoindolin-2-yl)cyclohexanecarboxamide]",1 to 10 µM
23,"COc1cc(NC(=O)[C@H]2CC[C@@H](N3Cc4c(C)cccc4OC3=O)CC2)ccc1C [Example 115, (1s,4s)-N-(3-methoxy-4-methylphenyl)-4-(5-methyl-2-oxo-2H-benzo[e][1,3]oxazin-3(4H)-yl)cyclohexane-1-carboxamide]",0.1 to 1 µM
24,"Cc1cc(NCCN(C)C)cc2c1CN([C@H]1CC[C@@H](C(=O)Nc3ccc(Cl)c(F)c3)CC1)C2=O [Example 264, (1s,4s)-N-(4-Chloro-3-fluorophenyl)-4-(6-(2-(dimethylamino)ethylamino)-4-methyl-1-oxoisoindolin-2-yl)cyclohexanecarboxamide]",< 0.1 µM
